Key:
Format in all cases: functional
[1] = system: Staphylococcus aureus; experiment: Increase in ssaA expression in biofilm-associated cells of epidemic methicillin-resistant Staphylococcus aureus isolate 16-2 at 4 times MIC incubated for 1 hr by RT-PCR relative to untreated control
[2] = system: Staphylococcus aureus; experiment: Decrease in tst gene expression in biofilm-associated cells of epidemic methicillin-resistant Staphylococcus aureus isolate 16 at 4 times MIC incubated for 1 hr by whole genome microarray relative to untreated control
[3] = system: Staphylococcus aureus; experiment: Decrease in clpC gene expression in biofilm-associated cells of epidemic methicillin-resistant Staphylococcus aureus isolate 16 at 4 times MIC incubated for 1 hr by whole genome microarray relative to untreated control
[4] = system: Staphylococcus aureus; experiment: Increase in mnhG expression in biofilm-associated cells of epidemic methicillin-resistant Staphylococcus aureus isolate 16-1 at 4 times MIC incubated for 1 hr by RT-PCR relative to untreated control
[5] = system: Staphylococcus aureus; experiment: Increase in nusG gene expression in biofilm-associated cells of epidemic methicillin-resistant Staphylococcus aureus isolate 16 at 4 times MIC incubated for 1 hr by whole genome microarray relative to untreated control
[6] = system: Staphylococcus aureus; experiment: Increase in rho gene expression in biofilm-associated cells of epidemic methicillin-resistant Staphylococcus aureus isolate 16 at 4 times MIC incubated for 1 hr by whole genome microarray relative to untreated control
[7] = system: Staphylococcus aureus; experiment: Decrease in clpC expression in biofilm-associated cells of epidemic methicillin-resistant Staphylococcus aureus isolate 16-2 at 4 times MIC incubated for 1 hr by RT-PCR relative to untreated control
[8] = system: Staphylococcus aureus; experiment: Increase in isaA expression in biofilm-associated cells of epidemic methicillin-resistant Staphylococcus aureus isolate 15 at 4 times MIC incubated for 1 hr by RT-PCR relative to untreated control
[9] = system: Staphylococcus aureus; experiment: Increase in dltC gene expression in biofilm-associated cells of epidemic methicillin-resistant Staphylococcus aureus isolate 16 at 4 times MIC incubated for 1 hr by whole genome microarray relative to untreated control
[10] = system: Staphylococcus aureus; experiment: Increase in topA gene expression in biofilm-associated cells of epidemic methicillin-resistant Staphylococcus aureus isolate 16 at 4 times MIC incubated for 1 hr by whole genome microarray relative to untreated control
[11] = system: Staphylococcus aureus; experiment: Increase in isaA expression in biofilm-associated cells of epidemic methicillin-resistant Staphylococcus aureus isolate 16-2 at 4 times MIC incubated for 1 hr by RT-PCR relative to untreated control
[12] = system: Staphylococcus aureus; experiment: Decrease in cap8H gene expression in biofilm-associated cells of epidemic methicillin-resistant Staphylococcus aureus isolate 16 at 4 times MIC incubated for 1 hr by whole genome microarray relative to untreated control
[13] = system: Staphylococcus aureus; experiment: Increase in sarA gene expression in biofilm-associated cells of epidemic methicillin-resistant Staphylococcus aureus isolate 16 at 4 times MIC incubated for 1 hr by whole genome microarray relative to untreated control
[14] = system: Staphylococcus aureus; experiment: Decrease in capC expression in biofilm-associated cells of epidemic methicillin-resistant Staphylococcus aureus isolate 16-1 at 4 times MIC incubated for 1 hr by RT-PCR relative to untreated control
[15] = system: Staphylococcus aureus; experiment: Increase in fnbB expression in biofilm-associated cells of epidemic methicillin-resistant Staphylococcus aureus isolate 15 at 4 times MIC incubated for 1 hr by RT-PCR relative to untreated control
[16] = system: Staphylococcus aureus; experiment: Decrease in capG expression in biofilm-associated cells of epidemic methicillin-resistant Staphylococcus aureus isolate 16-1 at 4 times MIC incubated for 1 hr by RT-PCR relative to untreated control
[17] = system: Staphylococcus aureus; experiment: Increase in rpsE gene expression in biofilm-associated cells of epidemic methicillin-resistant Staphylococcus aureus isolate 16 at 4 times MIC incubated for 1 hr by whole genome microarray relative to untreated control
[18] = system: Staphylococcus aureus; experiment: Decrease in mecI gene expression in biofilm-associated cells of epidemic methicillin-resistant Staphylococcus aureus isolate 16 at 4 times MIC incubated for 1 hr by whole genome microarray relative to untreated control
[19] = system: Staphylococcus aureus; experiment: Increase in rplD gene expression in biofilm-associated cells of epidemic methicillin-resistant Staphylococcus aureus isolate 16 at 4 times MIC incubated for 1 hr by whole genome microarray relative to untreated control
[20] = system: Staphylococcus aureus; experiment: Increase in clfB gene expression in biofilm-associated cells of epidemic methicillin-resistant Staphylococcus aureus isolate 16 at 4 times MIC incubated for 1 hr by whole genome microarray relative to untreated control
[21] = system: Staphylococcus aureus; experiment: Decrease in clpC expression in biofilm-associated cells of epidemic methicillin-resistant Staphylococcus aureus isolate 15 at 4 times MIC incubated for 1 hr by RT-PCR relative to untreated control
[22] = system: Staphylococcus aureus; experiment: Decrease in icaC gene expression in biofilm-associated cells of epidemic methicillin-resistant Staphylococcus aureus isolate 16 at 4 times MIC incubated for 1 hr by whole genome microarray relative to untreated control
[23] = system: Staphylococcus aureus; experiment: Decrease in asp23 gene expression in biofilm-associated cells of epidemic methicillin-resistant Staphylococcus aureus isolate 16 at 4 times MIC incubated for 1 hr by whole genome microarray relative to untreated control
[24] = system: Staphylococcus aureus; experiment: Increase in isaA gene expression in biofilm-associated cells of epidemic methicillin-resistant Staphylococcus aureus isolate 16 at 4 times MIC incubated for 1 hr by RT-PCR relative to untreated control
[25] = system: Staphylococcus aureus; experiment: Increase in clfB expression in biofilm-associated cells of epidemic methicillin-resistant Staphylococcus aureus isolate 16-1 at 4 times MIC incubated for 1 hr by RT-PCR relative to untreated control
[26] = system: Staphylococcus aureus; experiment: Increase in fnbB expression in biofilm-associated cells of epidemic methicillin-resistant Staphylococcus aureus isolate 16-1 at 4 times MIC incubated for 1 hr by RT-PCR relative to untreated control
[27] = system: Staphylococcus aureus; experiment: Increase in ssaA expression in biofilm-associated cells of epidemic methicillin-resistant Staphylococcus aureus isolate 15 at 4 times MIC incubated for 1 hr by RT-PCR relative to untreated control
[28] = system: Staphylococcus aureus; experiment: Decrease in fnbB expression in biofilm-associated cells of epidemic methicillin-resistant Staphylococcus aureus isolate 16-2 at 4 times MIC incubated for 1 hr by RT-PCR relative to untreated control
[29] = system: Staphylococcus aureus; experiment: Increase in recU gene expression in biofilm-associated cells of epidemic methicillin-resistant Staphylococcus aureus isolate 16 at 4 times MIC incubated for 1 hr by whole genome microarray relative to untreated control
[30] = system: Staphylococcus aureus; experiment: Decrease in tst gene expression in biofilm-associated cells of epidemic methicillin-resistant Staphylococcus aureus isolate 16 at 4 times MIC incubated for 1 hr by RT-PCR relative to untreated control
[31] = system: Staphylococcus aureus; experiment: Increase in tsf gene expression in biofilm-associated cells of epidemic methicillin-resistant Staphylococcus aureus isolate 16 at 4 times MIC incubated for 1 hr by whole genome microarray relative to untreated control
[32] = system: Staphylococcus aureus; experiment: Decrease in capF gene expression in biofilm-associated cells of epidemic methicillin-resistant Staphylococcus aureus isolate 16 at 4 times MIC incubated for 1 hr by whole genome microarray relative to untreated control
[33] = system: Staphylococcus aureus; experiment: Decrease in mnhG expression in biofilm-associated cells of epidemic methicillin-resistant Staphylococcus aureus isolate 15 at 4 times MIC incubated for 1 hr by RT-PCR relative to untreated control
[34] = system: Staphylococcus aureus; experiment: Increase in mnhD gene expression in biofilm-associated cells of epidemic methicillin-resistant Staphylococcus aureus isolate 16 at 4 times MIC incubated for 1 hr by whole genome microarray relative to untreated control

In the case of `CN(C)c1cc(NC(=O)CNC(C)(C)C)c(O)c2c1C[C@H]1C[C@H]3[C@H](N(C)C)C(O)=C(C(N)=O)C(=O)[C@@]3(O)C(O)=C1C2=O` [TIGECYCLINE], the “fold change (FC)” value [1] is reported as 1.72, the “fold change (FC)” value [2] is reported as 2.39 and the “fold change (FC)” value [3] is reported as 2.44. The “fold change (FC)” value [4] was 5.16, the “fold change (FC)” value [5] was 4.34 and the “fold change (FC)” value [6] was 2.15. The “fold change (FC)” value [7] was 19.87, the “fold change (FC)” value [8] was 1.09 and the “fold change (FC)” value [9] was 2.29. For the same compound, the “fold change (FC)” value [10] was 2.26, the “fold change (FC)” value [11] was 3.7 and the “fold change (FC)” value [12] was 2.18. The “fold change (FC)” value [13] was 2.37, the “fold change (FC)” value [14] was 1.75 and the “fold change (FC)” value [15] was 1.22. The “fold change (FC)” value [16] was 1.01, the “fold change (FC)” value [17] was 11.01 and the “fold change (FC)” value [18] was 2.39. For the same compound, the “fold change (FC)” value [19] was 13.06, the “fold change (FC)” value [20] was 4 and the “fold change (FC)” value [21] was 1.23. The “fold change (FC)” value [22] was 2.06, the “fold change (FC)” value [23] was 8.61 and the “fold change (FC)” value [24] was 7.68. For the same compound, the “fold change (FC)” value [25] was 7.5, the “fold change (FC)” value [26] was 3.03 and the “fold change (FC)” value [27] was 1.17. For the same compound, the “fold change (FC)” value [28] was 1.53, the “fold change (FC)” value [29] was 4.38 and the “fold change (FC)” value [30] was 1.51. For the same compound, the “fold change (FC)” value [31] was 3.23, the “fold change (FC)” value [32] was 2.66 and the “fold change (FC)” value [33] was 1.64. For the same compound, the “fold change (FC)” value [34] was 1.93.

— ChEMBL document CHEMBL1240349, “Influence of tigecycline on expression of virulence factors in biofilm-associated cells of methicillin-resistant Staphylococcus aureus” (2010)
